Reference: patent publication US10660967B2, “Curcumin conjugates and methods of use thereof” (priority 2016, dated 2020)
Read-outs that look alike come from different tables or passages of the source.

Assays:
[1] = test system: PHA-stimulated splenocytes; test: Proliferative response of PHA-stimulated splenocytes (MTT assay); type: cell-based; settings: PHA 5 μg/ml, 72 hr; compounds at 5 μM (method says 10 μM); ratio of O.D. versus vehicle control
Summary of the method: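 Freshly prepared splenocytes (1×10^6 cells/well) were cultured for 72 h at 37° C with compound at 10 μM final, with or without PHA (5 μg/ml). Viability was read by MTT (4 h), with absorbance at 570 nm against 690 nm reference. Stimulation index is the OD ratio of treated versus vehicle cultures.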

[2] = test system: MCF-7 cells; test: Effect on doxorubicin induced cytotoxicity (MTT)
Summary of the method: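 MCF-7 cells were exposed for 48 hr to 100 μM curcumin derivative alone or combined with 10 μM doxorubicin. Controls got medium, DMSO vehicle, or vehicle+doxorubicin. Percent viable cells was read by MTT assay.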

[3] = test system: Pseudomonas aeruginosa ATCC27853; test: Antimicrobial MIC, agar dilution
[4] = test system: Salmonella typhi ATCC19430; test: Antimicrobial MIC, agar dilution; type: cell-based; settings: Salmonella enterica, read-out: Minimum inhibitory concentration (MIC)
[5] = test system: Staphylococcus aureus ATCC25923; test: Antimicrobial MIC, agar dilution
[6] = test system: lipopolysaccharide-stimulated peritoneal macrophages; test: Production of nitric oxide by lipopolysaccharide-stimulated peritoneal macrophages (Greiss reagent); type: cell-based; design: Potency (%): % inhibition of nitric oxide production relative to lipopolysaccharide-stimulated macrophages: concentration or dose not given beside the values; settings: LPS-stimulated peritoneal macrophages; for Nitric oxide (nitrite) concentration, μM (average ± SD): 24 h, nitrite by Greiss reagent
Summary of the method: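 Macrophages in nitrite-free medium with 0.1% BSA were stimulated with LPS at 0.5–10 ng/ml, some wells also receiving epinephrine, norepinephrine or dopamine at […], for 24 h at 37° C. Nitrite in supernatants was measured with Greiss reagent, 15 min at room temperature, absorbance 532 nm.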

[7] = test system: A-549 (lung) carcinoma cell line; test: Anti-tumor properties, MTT; type: cell-based; settings: Homo sapiens, A549
[8] = test system: PC3 (prostate) carcinoma cell line; test: Anti-tumor properties, MTT; type: cell-based; settings: Homo sapiens
[9] = ATCC27853, 18 h, read-out: Minimum inhibitory concentration (MIC)
[10] = ATCC27853, read-out: Minimum inhibitory concentration (MIC)
[11] = ATCC25923, 18 h, read-out: Minimum inhibitory concentration (MIC)
[12] = ATCC25923, read-out: Minimum inhibitory concentration (MIC)

## COc1cc(/C=C/C(=O)CC(=O)/C=C/c2ccc(OC(=O)C(C)NC(=O)OCc3ccccc3)c(OC)c2)ccc1OC(=O)C(C)NC(=O)OCc1ccccc1 (racemic) [Cbz-DL-Ala-Cur, ((1E,6E)-3,5-dioxohepta-1,6-diene-1,7-diyl)bis(2-methoxy-4,1-phenylene) bis(2-(((benzyloxy)carbonyl)amino)propanoate)]
[1]
  Stimulation Index (average ± SD): 1.18 ± 0.09
[2]; 10 μM DOX in combination with 100 μM curcumin derivative, 48 hr
  Percentage of viable cells MCF-7 (average ± SD): 45.70 ± 2.23
[2]; Homo sapiens, MCF7, 48 h, read-out: Percentage of viable cells MCF-7 (average ± SD)
  viability at 100 µM: 98.8 ± 4.55%
[3]; [9]
  MIC: 0.25 µg/mL
[3]; [10]
  MIC: 0.321 µM
[4]; 18 h
  MIC: 0.5 µg/mL
[4]
  MIC: 0.642 µM
[5]; [11]
  MIC: 0.5 µg/mL
[5]; [12]
  MIC: 0.642 µM
[6]
  Potency (%): % inhibition of nitric oxide production relative to lipopolysaccharide-stimulated macrophages: 45.41%
  Nitric oxide (nitrite) concentration, μM (average ± SD): 14.91 ± 0.62 µM

## COc1cc(/C=C/C(=O)CC(=O)/C=C/c2ccc(OC(=O)[C@H](N)CCSC)c(OC)c2)ccc1OC(=O)[C@H](N)CCSC.Cl.Cl [HCl-D-Met-Cur, (2R,2′R)-1,1′-((((1E,6E)-3,5-dioxohepta-1,6-diene-1,7-diyl)bis(2-methoxy-4,1-phenylene))bis(oxy))bis(4-(methylthio)-1-oxobutan-2-aminium) chloride]
[7]
  IC50: 20 µM
[1]
  Stimulation Index (average ± SD): 1.01 ± 0.15
[3]; [9]
  MIC: 1 µg/mL
[3]; [10]
  MIC: 1.42 µM
[8]
  IC50: 41.5 µM
[4]; 18 h
  MIC: 0.25 µg/mL
[4]
  MIC: 0.355 µM
[5]; [11]
  MIC: 0.125 µg/mL
[5]; [12]
  MIC: 0.178 µM
[6]
  Potency (%): % inhibition of nitric oxide production relative to lipopolysaccharide-stimulated macrophages: 49.57%
  Nitric oxide (nitrite) concentration, μM (average ± SD): 13.77 ± 0.96 µM
